Active and inactive are the calls of the source. The rule behind the calls is not given here.
System: CCRIS mutagenicity, Ames/micronucleus/aberration tests
Assay: CCRIS mutagenicity studies
[1] = Test System: AMES SALMONELLA TYPHIMURIUM, Strain/Indicator: TA1537, Metabolic Activation: NONE, Method: STANDARD PLATE

## CN(C)N=Nc1ccc([N+](=O)[O-])cc1
Test System: AMES SALMONELLA TYPHIMURIUM, Strain/Indicator: TA92, Metabolic Activation: MOUSE, LIVER, S-9, POLYCHLORINATED BIPHENYLS, Method: PREINCUBATION
  mutagenic call: active; positive
Test System: AMES SALMONELLA TYPHIMURIUM, Strain/Indicator: TA92, Metabolic Activation: MOUSE, LIVER, S-9, POLYCHLORINATED BIPHENYLS, Method: STANDARD PLATE
  mutagenic call: active; positive
Test System: AMES SALMONELLA TYPHIMURIUM, Strain/Indicator: TA92, Metabolic Activation: NONE, Method: STANDARD PLATE
  mutagenic call: active; positive
Test System: AMES SALMONELLA TYPHIMURIUM, Strain/Indicator: TA97, Metabolic Activation: MOUSE, LIVER, S-9, POLYCHLORINATED BIPHENYLS, Method: PREINCUBATION
  mutagenic call: active; positive
Test System: AMES SALMONELLA TYPHIMURIUM, Strain/Indicator: TA97, Metabolic Activation: MOUSE, LIVER, S-9, POLYCHLORINATED BIPHENYLS, Method: STANDARD PLATE
  mutagenic call: active; positive
Test System: AMES SALMONELLA TYPHIMURIUM, Strain/Indicator: TA97, Metabolic Activation: NONE, Method: STANDARD PLATE
  mutagenic call: active; positive
Test System: AMES SALMONELLA TYPHIMURIUM, Strain/Indicator: TA98, Metabolic Activation: MOUSE, LIVER, S-9, POLYCHLORINATED BIPHENYLS, Method: PREINCUBATION
  mutagenic call: active; positive
Test System: AMES SALMONELLA TYPHIMURIUM, Strain/Indicator: TA98, Metabolic Activation: MOUSE, LIVER, S-9, POLYCHLORINATED BIPHENYLS, Method: STANDARD PLATE
  mutagenic call: active; positive
Test System: AMES SALMONELLA TYPHIMURIUM, Strain/Indicator: TA98, Metabolic Activation: NONE, Method: STANDARD PLATE
  mutagenic call: active; positive
Test System: AMES SALMONELLA TYPHIMURIUM, Strain/Indicator: TA100, Metabolic Activation: MOUSE, LIVER, S-9, POLYCHLORINATED BIPHENYLS, Method: PREINCUBATION
  mutagenic call: active; positive
Test System: AMES SALMONELLA TYPHIMURIUM, Strain/Indicator: TA100, Metabolic Activation: MOUSE, LIVER, S-9, POLYCHLORINATED BIPHENYLS, Method: STANDARD PLATE
  mutagenic call: active; positive
Test System: AMES SALMONELLA TYPHIMURIUM, Strain/Indicator: TA100, Metabolic Activation: NONE, Method: STANDARD PLATE
  mutagenic call: active; positive
Test System: AMES SALMONELLA TYPHIMURIUM, Strain/Indicator: TA1535, Metabolic Activation: MOUSE, LIVER, S-9, POLYCHLORINATED BIPHENYLS, Method: PREINCUBATION
  mutagenic call: active; positive
Test System: AMES SALMONELLA TYPHIMURIUM, Strain/Indicator: TA1535, Metabolic Activation: MOUSE, LIVER, S-9, POLYCHLORINATED BIPHENYLS, Method: STANDARD PLATE
  mutagenic call: active; positive
Test System: AMES SALMONELLA TYPHIMURIUM, Strain/Indicator: TA1535, Metabolic Activation: NONE, Method: STANDARD PLATE
  mutagenic call: active; positive
Test System: AMES SALMONELLA TYPHIMURIUM, Strain/Indicator: TA1537, Metabolic Activation: MOUSE, LIVER, S-9, POLYCHLORINATED BIPHENYLS, Method: PREINCUBATION
  mutagenic call: active; positive
Test System: AMES SALMONELLA TYPHIMURIUM, Strain/Indicator: TA1537, Metabolic Activation: MOUSE, LIVER, S-9, POLYCHLORINATED BIPHENYLS, Method: STANDARD PLATE
  mutagenic call: active; positive
[1]
  mutagenic call: active; positive
Test System: AMES SALMONELLA TYPHIMURIUM, Strain/Indicator: TA1538, Metabolic Activation: MOUSE, LIVER, S-9, POLYCHLORINATED BIPHENYLS, Method: PREINCUBATION
  mutagenic call: active; positive
Test System: AMES SALMONELLA TYPHIMURIUM, Strain/Indicator: TA1538, Metabolic Activation: MOUSE, LIVER, S-9, POLYCHLORINATED BIPHENYLS, Method: STANDARD PLATE
  mutagenic call: active; positive
Test System: AMES SALMONELLA TYPHIMURIUM, Strain/Indicator: TA1538, Metabolic Activation: NONE, Method: STANDARD PLATE
  mutagenic call: active; positive

## CCC(=O)C1c2cccc(O)c2C(=O)c2c(O)cccc21
[1]
  mutagenic call: active; positive
Test System: AMES SALMONELLA TYPHIMURIUM, Strain/Indicator: TA1537, Metabolic Activation: RAT, LIVER, S-9, PHENOBARBITAL AND BETA-NAPHTHOFLAVONE, Method: STANDARD PLATE
  mutagenic call: active; positive
Test System: E. COLI, Strain/Indicator: WP2, Metabolic Activation: NONE, Method: STANDARD PLATE
  mutagenic call: inactive; negative
Test System: E. COLI, Strain/Indicator: WP2, Metabolic Activation: RAT, LIVER, S-9, AROCLOR 1254, Method: STANDARD PLATE
  mutagenic call: inactive; negative
Test System: E. COLI, Strain/Indicator: WP2 UVRA, Metabolic Activation: NONE, Method: STANDARD PLATE
  mutagenic call: inactive; negative
Test System: E. COLI, Strain/Indicator: WP2 UVRA, Metabolic Activation: RAT, LIVER, S-9, AROCLOR 1254, Method: STANDARD PLATE
  mutagenic call: inactive; negative

— PubChem BioAssay AID1259407 (Chemical Carcinogenesis Research Information System (CCRIS), 2018)
